Laboratory results as given in article PMC7567334 (Environmental Health Perspectives, 2020).
Entries after “also recorded” stand apart in the source; their conditions may differ. Like-named read-outs stand apart in the source and are kept apart here.

Columns and labels:
GR [1] = biological target: T1, GR (Homo sapiens, UniProt P04150); test: PolarScreen GR Competitor binding affinity assay; set-up: purchased Invitrogen; settings: in words; tested up to 10 μM
T1 sequence (P04150 1-777): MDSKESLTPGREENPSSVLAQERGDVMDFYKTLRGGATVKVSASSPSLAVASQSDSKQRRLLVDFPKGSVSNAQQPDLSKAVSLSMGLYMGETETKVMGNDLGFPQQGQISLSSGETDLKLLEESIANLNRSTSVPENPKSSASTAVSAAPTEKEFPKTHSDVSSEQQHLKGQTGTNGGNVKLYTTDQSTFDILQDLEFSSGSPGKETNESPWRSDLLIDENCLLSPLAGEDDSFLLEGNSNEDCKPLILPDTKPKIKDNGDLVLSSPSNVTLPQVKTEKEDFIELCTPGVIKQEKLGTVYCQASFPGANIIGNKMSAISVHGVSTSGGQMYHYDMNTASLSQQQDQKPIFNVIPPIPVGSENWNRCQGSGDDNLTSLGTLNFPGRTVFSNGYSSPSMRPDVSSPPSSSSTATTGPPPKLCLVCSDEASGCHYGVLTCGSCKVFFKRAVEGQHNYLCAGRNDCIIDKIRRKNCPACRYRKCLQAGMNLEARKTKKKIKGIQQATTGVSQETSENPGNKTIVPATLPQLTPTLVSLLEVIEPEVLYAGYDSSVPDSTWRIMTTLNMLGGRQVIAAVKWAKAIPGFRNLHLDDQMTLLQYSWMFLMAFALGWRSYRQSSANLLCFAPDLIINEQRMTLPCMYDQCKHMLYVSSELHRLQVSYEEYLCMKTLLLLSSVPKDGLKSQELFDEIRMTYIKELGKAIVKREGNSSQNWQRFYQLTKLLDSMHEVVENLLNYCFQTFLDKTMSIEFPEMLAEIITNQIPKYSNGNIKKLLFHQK

Androgen receptor = settings: cited from earlier work
AR-EcoScreen cells = test: Cell viability (resazurin) in AR-EcoScreen cells; settings: agonist assay
firefly luciferase = biological target: T2, firefly luciferase (Photinus pyralis, UniProt P08659); test: Luciferase inhibition assay in GH3.TRE-Luc cell lysates; assay type: biochemical; settings: cell lysate, read-out: inhibition of firefly luciferase luminescence signal
T2 construct: Only implied by 'CP' in the vector name, from my own knowledge; expressed in transfected cells; host or cells: GH3.TRE-Luc cells induced with 0.25 nM T3, lysate
T2 sequence (P08659 whole entry): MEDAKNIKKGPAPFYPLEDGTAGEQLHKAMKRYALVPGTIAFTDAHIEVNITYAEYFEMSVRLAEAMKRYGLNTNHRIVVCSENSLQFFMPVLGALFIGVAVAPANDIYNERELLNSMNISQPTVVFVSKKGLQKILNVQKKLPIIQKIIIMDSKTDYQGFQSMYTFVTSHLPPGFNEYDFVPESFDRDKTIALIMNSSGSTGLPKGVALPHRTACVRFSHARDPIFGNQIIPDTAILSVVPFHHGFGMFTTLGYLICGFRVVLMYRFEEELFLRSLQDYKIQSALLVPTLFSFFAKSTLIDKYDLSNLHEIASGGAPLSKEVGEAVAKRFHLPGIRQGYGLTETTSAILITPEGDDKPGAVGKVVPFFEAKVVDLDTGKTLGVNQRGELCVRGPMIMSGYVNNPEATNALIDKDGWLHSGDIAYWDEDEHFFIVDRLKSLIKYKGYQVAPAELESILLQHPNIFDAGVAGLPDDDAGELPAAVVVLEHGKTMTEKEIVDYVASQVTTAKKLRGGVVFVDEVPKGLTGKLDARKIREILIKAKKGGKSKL
Description: Serial dilutions for each treatment were prepared in the cell lysate and incubated at room temperature for 30 min.

AroB transcription = settings: 0.25 μM triclocarban added to 1 nM E2; zebrafish embryos; ref Chung et al. 2011; cited from earlier work
human (h) ERα = biological target: T3, human (h) ERα (Homo sapiens, UniProt P03372); test: hERα-HeLa-9903 transactivation assay, agonist setup; assay type: cell-based; set-up: host or cells: hERα-HeLa-9903 (HeLa derived); settings: for higher ERα RTA than vehicle control: vs 0.1% DMSO
T3 sequence (P03372 1-595): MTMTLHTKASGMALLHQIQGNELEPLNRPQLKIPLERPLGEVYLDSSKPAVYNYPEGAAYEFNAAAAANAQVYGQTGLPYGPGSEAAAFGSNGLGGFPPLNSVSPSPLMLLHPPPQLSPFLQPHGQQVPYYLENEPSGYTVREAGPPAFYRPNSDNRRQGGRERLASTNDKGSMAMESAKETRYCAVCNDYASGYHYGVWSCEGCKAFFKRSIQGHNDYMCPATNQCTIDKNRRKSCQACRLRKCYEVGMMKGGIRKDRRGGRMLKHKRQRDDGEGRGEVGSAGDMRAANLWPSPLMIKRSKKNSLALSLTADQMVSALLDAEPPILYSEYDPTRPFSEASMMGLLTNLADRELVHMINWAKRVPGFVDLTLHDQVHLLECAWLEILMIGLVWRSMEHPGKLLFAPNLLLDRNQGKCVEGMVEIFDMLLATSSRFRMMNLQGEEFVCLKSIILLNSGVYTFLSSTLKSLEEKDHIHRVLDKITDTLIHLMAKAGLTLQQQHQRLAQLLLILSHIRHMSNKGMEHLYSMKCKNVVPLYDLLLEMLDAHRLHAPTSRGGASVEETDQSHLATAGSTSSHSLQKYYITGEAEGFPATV

Estrogen receptor-α = settings: cited from earlier work
Glucocorticoid receptor = settings: ref Kolšek et al. 2014a, cited from earlier work
GR [2] = biological target: T1, GR; test: MDA-kb2 GR reporter assay, antagonist setup (500 nM HC); assay type: cell-based; set-up: constitutively expressed high levels of functional GR and AR; host or cells: MDA-kb2
[3] = BG1-ERE cells, ref Ahn et al. 2008

O=C(Nc1ccc(Cl)cc1)Nc1ccc(Cl)c(Cl)c1 [Triclocarban, 1-(4-Chlorophenyl)-3-(3,4-dichlorophenyl) urea]
binding affinity assay on isolated GR, result (GR [1]): did not show binding; also recorded: negative
effect on AR (Androgen receptor; HEK-2933Y cells, ref Ahn et al. 2008, Chen et al. 2008): Enhancer of testosterone activity in HEK-2933Y cells ([Ahn et al. 2008]; [Chen et al. 2008])
effect on AR (Androgen receptor; MDA-kb2 cells, ref Christen et al. 2010, Kolšek et al. 2014a, Tarnow et al. 2013): Enhancer of 5α-dihydrotestosterone activity in MDA-kb2 cells ([Christen et al. 2010]; [Kolšek et al. 2014a]; [Tarnow et al. 2013])
effect on AR (Androgen receptor; T47D-ARE cells, ref Ahn et al. 2008): Enhancer of testosterone activity in T47D-ARE cells ([Ahn et al. 2008])
highest noncytotoxic concentration (AR-EcoScreen cells): 2.5 µM
inhibition at 50 µM (firefly luciferase): 46.7%
increase in AroB transcription (AroB transcription): 18 fold
higher ERα RTA than vehicle control (human (h) ERα; 1 μM): 53%
higher ERα RTA than vehicle control (human (h) ERα; 5 μM): 58%
ERα agonist activity, call (human (h) ERα; hERα-HeLa-9903): Agonist
concentration with ERα agonist activity (human (h) ERα; hERα-HeLa-9903): 1 to 5 µM
effect on ER with β-estradiol (Estrogen receptor-α; [3]): Enhancer of β-estradiol activity in BG1-ERE cells ([Ahn et al. 2008])
effect on ER, compound alone (Estrogen receptor-α; [3]): Agonist in BG1-ERE cells ([Ahn et al. 2008])
effect on ERα (Estrogen receptor-α; hERα-HeLa-9903 cells, ref Tarnow et al. 2013): Enhancer of β-estradiol activity in hERα-HeLa-9903 cells ([Tarnow et al. 2013])
effect on GR with HC (Glucocorticoid receptor; MDA-kb2 cells): Enhancer of HC activity in MDA-kb2 cells ([Kolšek et al. 2014a])
concentration with enhanced HC activity on GR (Glucocorticoid receptor): 2 µM
lower GR RTA than spike-in control (GR [2]; 5 μM, vs 0.1% DMSO with 500 nM HC): 38.9%
GR antagonist activity, call (GR [2]; MDA-kb2): Antagonist
concentration with GR antagonist activity (GR [2]; MDA-kb2): 5 µM
